Test results reported in ChEMBL document CHEMBL5723582, “Data for DCP probe T-10430” (2024).

Legend:
[1] = target: Type-1 angiotensin II receptor (Homo sapiens, UniProt P30556); assay: IP-One assay (AGTR1), agonist mode at up to 50 µM; format: functional; set-up: compound concentration < 50 uM
[2] = target: Calcitonin gene-related peptide type 1 receptor (Homo sapiens) (UniProt Q16602); assay: RLU of CALCRL at 1.0 µM in the […] PRESTO-Tango GPCRome screen; settings: Compound concentration 1.0 uM
[3] = target: C-C chemokine receptor type 10 (Homo sapiens) (UniProt P46092); assay: RLU of CCR10 at 1.0 µM in the […] PRESTO-Tango GPCRome screen; settings: Compound concentration 1.0 uM
[4] = target: Adhesion G protein-coupled receptor E5 (Homo sapiens) (UniProt P48960); assay: RLU of CD97 at 1.0 µM in the […] PRESTO-Tango GPCRome screen; settings: Compound concentration 1.0 uM
[5] = target: Muscarinic acetylcholine receptor M1 (Homo sapiens) (UniProt P11229); assay: RLU of CHRM1 at 1.0 µM in the […] PRESTO-Tango GPCRome screen; settings: Compound concentration 1.0 uM
[6] = target: CX3C chemokine receptor 1 (Homo sapiens) (UniProt P49238); assay: RLU of CX3C1 at 1.0 µM in the […] PRESTO-Tango GPCRome screen; settings: Compound concentration 1.0 uM
[7] = target: C-X-C chemokine receptor type 2 (Homo sapiens) (UniProt P25025); assay: RLU of CXCR2 at 1.0 µM in the […] PRESTO-Tango GPCRome screen; settings: Compound concentration 1.0 uM
[8] = target: C-X-C chemokine receptor type 6 (Homo sapiens) (UniProt O00574); assay: RLU of CXCR6 at 1.0 µM in the […] PRESTO-Tango GPCRome screen; settings: Compound concentration 1.0 uM
[9] = target: Atypical chemokine receptor 3 (Homo sapiens) (UniProt P25106); assay: RLU of CXCR7 at 1.0 µM in the […] PRESTO-Tango GPCRome screen; settings: Compound concentration 1.0 uM
[10] = target: D(1B) dopamine receptor (Homo sapiens) (UniProt P21918); assay: RLU of DRD5 at 1.0 µM in the […] PRESTO-Tango GPCRome screen; settings: Compound concentration 1.0 uM
[11] = target: Endothelin-1 receptor (Homo sapiens) (UniProt P25101); assay: RLU of EDNRA at 1.0 µM in the […] PRESTO-Tango GPCRome screen; settings: Compound concentration 1.0 uM
[12] = target: Proteinase-activated receptor 3 (Homo sapiens) (UniProt O00254); assay: RLU of F2RL2 at 1.0 µM in the […] PRESTO-Tango GPCRome screen; settings: Compound concentration 1.0 uM
[13] = target: Probable G-protein coupled receptor 101 (Homo sapiens) (UniProt Q96P66); assay: RLU of GPR101 at 1.0 µM in the […] PRESTO-Tango GPCRome screen; settings: Compound concentration 1.0 uM
[14] = target: Probable G-protein coupled receptor 156 (Homo sapiens) (UniProt Q8NFN8); assay: RLU of GPR156 at 1.0 µM in the […] PRESTO-Tango GPCRome screen; settings: Compound concentration 1.0 uM
[15] = target: G-protein coupled receptor 182 (Homo sapiens) (UniProt O15218); assay: RLU of GPR182 at 1.0 µM in the […] PRESTO-Tango GPCRome screen; settings: Compound concentration 1.0 uM
[16] = target: Probable G-protein coupled receptor 27 (Homo sapiens) (UniProt Q9NS67); assay: RLU of GPR27 at 1.0 µM in the […] PRESTO-Tango GPCRome screen; settings: Compound concentration 1.0 uM
[17] = target: Probable G-protein coupled receptor 45 (Homo sapiens) (UniProt Q9Y5Y3); assay: RLU of GPR45 at 1.0 µM in the […] PRESTO-Tango GPCRome screen; settings: Compound concentration 1.0 uM
[18] = target: G-protein coupled receptor 52 (Homo sapiens) (UniProt Q9Y2T5); assay: RLU of GPR52 at 1.0 µM in the […] PRESTO-Tango GPCRome screen; settings: Compound concentration 1.0 uM
[19] = target: Adhesion G-protein coupled receptor G1 (Homo sapiens) (UniProt Q9Y653); assay: RLU of GPR56 at 1.0 µM in the […] PRESTO-Tango GPCRome screen; settings: Compound concentration 1.0 uM
[20] = target: Metabotropic glutamate receptor 2 (Homo sapiens) (UniProt Q14416); assay: RLU of GRM2 at 1.0 µM in the Aequorin PRESTO-Tango GPCRome screen; settings: Compound concentration 1.0 uM
[21] = target: Hydroxycarboxylic acid receptor 1 (Homo sapiens) (UniProt Q9BXC0); assay: RLU of HCA1 at 1.0 µM in the Aequorin PRESTO-Tango GPCRome screen; settings: Compound concentration 1.0 uM
[22] = target: Histamine H1 receptor (Homo sapiens) (UniProt P35367); assay: RLU of HRH1 at 1.0 µM in the Aequorin PRESTO-Tango GPCRome screen; settings: Compound concentration 1.0 uM
[23] = target: 5-hydroxytryptamine receptor 5A (Homo sapiens) (UniProt P47898); assay: RLU of HTR5 at 1.0 µM in the […] PRESTO-Tango GPCRome screen; settings: Compound concentration 1.0 uM
[24] = target: Lysophosphatidic acid receptor 4 (Homo sapiens) (UniProt Q99677); assay: RLU of LPAR4 at 1.0 µM in the […] PRESTO-Tango GPCRome screen; settings: Compound concentration 1.0 uM
[25] = target: Mas-related G-protein coupled receptor member F (Homo sapiens) (UniProt Q96AM1); assay: RLU of MRGPRF at 1.0 µM in the […] PRESTO-Tango GPCRome screen; settings: Compound concentration 1.0 uM
[26] = target: Mas-related G-protein coupled receptor member X2 (Homo sapiens) (UniProt Q96LB1); assay: RLU of MRGPRX2 at 1.0 µM in the […] PRESTO-Tango GPCRome screen; settings: Compound concentration 1.0 uM
[27] = target: Neuropeptides B/W receptor type 1 (Homo sapiens) (UniProt P48145); assay: RLU of NPBW1 at 1.0 µM in the […] PRESTO-Tango GPCRome screen; settings: Compound concentration 1.0 uM
[28] = target: Neurotensin receptor type 1 (Homo sapiens) (UniProt P30989); assay: RLU of NTSR1 at 1.0 µM in the […] PRESTO-Tango GPCRome screen; settings: Compound concentration 1.0 uM
[29] = target: Neurotensin receptor type 2 (Homo sapiens) (UniProt O95665); assay: RLU of NTSR2 at 1.0 µM in the […] PRESTO-Tango GPCRome screen; settings: Compound concentration 1.0 uM
[30] = target: Parathyroid hormone 2 receptor (Homo sapiens) (UniProt P49190); assay: RLU of PTH2R at 1.0 µM in the […] PRESTO-Tango GPCRome screen; settings: Compound concentration 1.0 uM
[31] = target: Relaxin receptor 2 (Homo sapiens) (UniProt Q8WXD0); assay: RLU of RXFP2 at 1.0 µM in the […] PRESTO-Tango GPCRome screen; settings: Compound concentration 1.0 uM
[32] = target: Relaxin-3 receptor 2 (Homo sapiens) (UniProt Q8TDU9); assay: RLU of RXFP4 at 1.0 µM in the […] PRESTO-Tango GPCRome screen; settings: Compound concentration 1.0 uM
[33] = target: Secretin receptor (Homo sapiens) (UniProt P47872); assay: RLU of SCTR at 1.0 µM in the […] PRESTO-Tango GPCRome screen; settings: Compound concentration 1.0 uM
[34] = target: Succinate receptor 1 (Homo sapiens) (UniProt Q9BXA5); assay: RLU of SUCNR1 at 1.0 µM in the […] PRESTO-Tango GPCRome screen; settings: Compound concentration 1.0 uM
[35] = tested on: Pyroglutamylated RFamide peptide receptor (Homo sapiens); assay: RLU of QRFP at 1.0 µM in the […] PRESTO-Tango GPCRome screen; settings: Compound concentration 1.0 uM

Chain of Parathyroid hormone 2 receptor (Homo sapiens) (P49190 whole entry): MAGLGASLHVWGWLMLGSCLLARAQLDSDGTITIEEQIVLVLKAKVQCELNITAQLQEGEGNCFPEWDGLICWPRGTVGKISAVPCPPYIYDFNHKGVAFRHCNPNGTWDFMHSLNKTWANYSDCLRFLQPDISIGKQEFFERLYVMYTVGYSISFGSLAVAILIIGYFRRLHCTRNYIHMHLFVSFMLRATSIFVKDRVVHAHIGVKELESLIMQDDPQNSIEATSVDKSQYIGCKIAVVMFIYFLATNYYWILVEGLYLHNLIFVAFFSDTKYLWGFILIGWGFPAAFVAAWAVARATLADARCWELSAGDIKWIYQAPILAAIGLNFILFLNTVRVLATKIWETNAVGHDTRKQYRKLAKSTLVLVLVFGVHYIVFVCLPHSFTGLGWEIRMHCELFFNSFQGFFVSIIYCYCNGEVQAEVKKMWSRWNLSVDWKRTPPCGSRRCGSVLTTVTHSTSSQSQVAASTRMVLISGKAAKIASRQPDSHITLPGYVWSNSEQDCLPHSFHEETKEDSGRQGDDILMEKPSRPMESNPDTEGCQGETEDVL
Chain of Neurotensin receptor type 1 (Homo sapiens) (P30989 whole entry): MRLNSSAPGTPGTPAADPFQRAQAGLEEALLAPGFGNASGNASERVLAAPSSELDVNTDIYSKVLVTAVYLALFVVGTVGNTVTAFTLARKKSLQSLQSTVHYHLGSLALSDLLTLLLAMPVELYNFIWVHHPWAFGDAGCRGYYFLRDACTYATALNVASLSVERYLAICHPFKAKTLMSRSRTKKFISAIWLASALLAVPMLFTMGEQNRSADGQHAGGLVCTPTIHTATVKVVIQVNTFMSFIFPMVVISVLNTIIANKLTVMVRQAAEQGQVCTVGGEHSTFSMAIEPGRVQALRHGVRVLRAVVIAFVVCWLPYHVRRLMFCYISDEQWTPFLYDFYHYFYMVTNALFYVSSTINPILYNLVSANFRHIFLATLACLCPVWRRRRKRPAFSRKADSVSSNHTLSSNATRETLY
Chain of Lysophosphatidic acid receptor 4 (Homo sapiens) (Q99677 whole entry): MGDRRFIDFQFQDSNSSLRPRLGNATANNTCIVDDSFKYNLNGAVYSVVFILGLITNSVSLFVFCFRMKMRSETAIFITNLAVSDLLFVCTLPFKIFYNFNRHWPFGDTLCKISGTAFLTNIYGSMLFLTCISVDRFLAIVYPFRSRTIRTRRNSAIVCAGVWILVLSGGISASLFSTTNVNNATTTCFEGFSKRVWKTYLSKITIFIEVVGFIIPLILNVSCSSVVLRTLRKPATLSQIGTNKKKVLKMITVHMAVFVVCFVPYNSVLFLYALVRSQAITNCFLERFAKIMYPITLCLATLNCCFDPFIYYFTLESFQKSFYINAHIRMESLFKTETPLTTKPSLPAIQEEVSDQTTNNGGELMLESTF
Chain of Relaxin receptor 2 (Homo sapiens) (Q8WXD0 whole entry): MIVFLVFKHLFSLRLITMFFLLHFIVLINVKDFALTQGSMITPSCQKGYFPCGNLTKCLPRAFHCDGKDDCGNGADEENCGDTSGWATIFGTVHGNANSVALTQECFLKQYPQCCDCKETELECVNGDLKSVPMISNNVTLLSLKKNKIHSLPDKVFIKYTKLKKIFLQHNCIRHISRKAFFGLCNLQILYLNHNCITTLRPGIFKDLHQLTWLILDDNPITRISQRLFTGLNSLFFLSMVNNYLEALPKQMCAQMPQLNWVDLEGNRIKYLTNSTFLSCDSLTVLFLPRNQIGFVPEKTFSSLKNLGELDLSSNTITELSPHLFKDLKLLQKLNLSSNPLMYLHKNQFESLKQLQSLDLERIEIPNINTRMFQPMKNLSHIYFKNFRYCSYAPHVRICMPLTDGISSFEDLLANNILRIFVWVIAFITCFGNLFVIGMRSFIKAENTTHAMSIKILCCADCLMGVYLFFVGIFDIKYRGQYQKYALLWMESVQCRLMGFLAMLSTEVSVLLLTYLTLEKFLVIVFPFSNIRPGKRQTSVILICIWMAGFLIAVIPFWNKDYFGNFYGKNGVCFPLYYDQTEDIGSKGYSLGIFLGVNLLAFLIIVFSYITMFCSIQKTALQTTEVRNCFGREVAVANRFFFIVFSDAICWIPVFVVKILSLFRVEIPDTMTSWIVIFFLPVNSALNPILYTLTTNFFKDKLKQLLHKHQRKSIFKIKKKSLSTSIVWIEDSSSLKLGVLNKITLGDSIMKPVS
Chain of Succinate receptor 1 (Homo sapiens) (Q9BXA5 whole entry): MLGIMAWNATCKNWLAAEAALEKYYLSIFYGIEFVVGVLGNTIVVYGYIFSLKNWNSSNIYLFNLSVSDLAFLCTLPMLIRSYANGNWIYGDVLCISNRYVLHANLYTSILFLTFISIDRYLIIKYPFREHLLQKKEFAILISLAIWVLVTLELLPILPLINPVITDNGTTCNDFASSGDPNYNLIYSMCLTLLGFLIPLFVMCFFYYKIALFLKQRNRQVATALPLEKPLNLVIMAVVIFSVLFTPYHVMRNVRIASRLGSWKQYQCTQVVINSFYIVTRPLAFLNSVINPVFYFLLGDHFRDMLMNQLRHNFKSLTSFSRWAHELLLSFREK
Chain of Probable G-protein coupled receptor 101 (Homo sapiens) (Q96P66 whole entry): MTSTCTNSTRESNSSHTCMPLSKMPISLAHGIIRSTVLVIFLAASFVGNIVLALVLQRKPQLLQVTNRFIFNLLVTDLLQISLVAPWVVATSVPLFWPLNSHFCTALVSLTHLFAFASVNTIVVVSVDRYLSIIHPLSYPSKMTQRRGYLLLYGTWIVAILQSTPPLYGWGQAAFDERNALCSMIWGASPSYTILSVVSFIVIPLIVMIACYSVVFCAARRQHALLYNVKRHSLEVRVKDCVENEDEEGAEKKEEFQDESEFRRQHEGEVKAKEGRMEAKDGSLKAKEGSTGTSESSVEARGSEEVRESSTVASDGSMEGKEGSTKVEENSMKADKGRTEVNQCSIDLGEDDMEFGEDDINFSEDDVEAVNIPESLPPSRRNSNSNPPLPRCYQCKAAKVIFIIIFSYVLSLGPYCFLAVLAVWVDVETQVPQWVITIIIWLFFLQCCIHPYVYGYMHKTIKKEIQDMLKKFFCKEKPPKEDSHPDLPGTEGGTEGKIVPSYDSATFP
Chain of C-X-C chemokine receptor type 2 (Homo sapiens) (P25025 whole entry): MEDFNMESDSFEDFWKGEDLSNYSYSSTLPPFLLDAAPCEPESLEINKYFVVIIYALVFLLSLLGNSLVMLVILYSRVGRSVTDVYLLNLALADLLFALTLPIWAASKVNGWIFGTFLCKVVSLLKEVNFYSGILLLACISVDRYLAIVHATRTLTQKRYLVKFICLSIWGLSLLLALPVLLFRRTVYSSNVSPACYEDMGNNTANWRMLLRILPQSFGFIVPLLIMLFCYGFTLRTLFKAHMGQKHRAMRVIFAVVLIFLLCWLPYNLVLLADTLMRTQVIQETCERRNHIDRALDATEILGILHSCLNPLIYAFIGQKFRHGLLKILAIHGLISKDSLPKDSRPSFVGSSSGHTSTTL
Chain of Histamine H1 receptor (Homo sapiens) (P35367 whole entry): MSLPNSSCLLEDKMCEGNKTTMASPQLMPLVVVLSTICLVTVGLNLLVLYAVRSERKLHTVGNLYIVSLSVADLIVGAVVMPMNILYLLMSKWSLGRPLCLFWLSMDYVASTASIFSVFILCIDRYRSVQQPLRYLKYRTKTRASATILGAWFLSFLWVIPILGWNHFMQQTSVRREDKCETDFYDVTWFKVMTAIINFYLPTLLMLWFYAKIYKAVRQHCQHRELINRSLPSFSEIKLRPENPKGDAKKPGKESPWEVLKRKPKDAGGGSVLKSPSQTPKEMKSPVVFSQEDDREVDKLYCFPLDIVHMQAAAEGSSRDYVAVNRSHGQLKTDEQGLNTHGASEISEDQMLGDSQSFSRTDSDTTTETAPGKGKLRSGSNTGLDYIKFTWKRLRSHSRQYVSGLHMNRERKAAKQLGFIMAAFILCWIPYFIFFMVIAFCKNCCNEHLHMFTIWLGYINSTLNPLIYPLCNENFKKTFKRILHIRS
Chain of Hydroxycarboxylic acid receptor 1 (Homo sapiens) (Q9BXC0 whole entry): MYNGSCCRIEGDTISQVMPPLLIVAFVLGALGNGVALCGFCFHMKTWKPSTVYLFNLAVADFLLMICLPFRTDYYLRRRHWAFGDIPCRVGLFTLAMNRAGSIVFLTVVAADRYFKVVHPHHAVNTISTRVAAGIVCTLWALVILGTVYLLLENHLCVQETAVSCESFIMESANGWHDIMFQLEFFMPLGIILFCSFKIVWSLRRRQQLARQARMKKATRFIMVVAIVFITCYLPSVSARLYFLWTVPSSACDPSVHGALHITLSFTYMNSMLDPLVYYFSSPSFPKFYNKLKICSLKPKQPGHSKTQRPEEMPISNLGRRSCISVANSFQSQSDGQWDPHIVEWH
Chain of Neuropeptides B/W receptor type 1 (Homo sapiens) (P48145 whole entry): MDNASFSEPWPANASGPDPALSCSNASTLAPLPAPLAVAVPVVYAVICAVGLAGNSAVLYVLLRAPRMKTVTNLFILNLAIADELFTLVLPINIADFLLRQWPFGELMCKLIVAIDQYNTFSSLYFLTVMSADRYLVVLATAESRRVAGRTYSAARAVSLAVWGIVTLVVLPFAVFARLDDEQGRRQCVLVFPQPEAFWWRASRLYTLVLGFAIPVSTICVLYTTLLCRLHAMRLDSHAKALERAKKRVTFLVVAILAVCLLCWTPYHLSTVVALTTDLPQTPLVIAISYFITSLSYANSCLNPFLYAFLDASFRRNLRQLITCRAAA
Chain of Probable G-protein coupled receptor 45 (Homo sapiens) (Q9Y5Y3 whole entry): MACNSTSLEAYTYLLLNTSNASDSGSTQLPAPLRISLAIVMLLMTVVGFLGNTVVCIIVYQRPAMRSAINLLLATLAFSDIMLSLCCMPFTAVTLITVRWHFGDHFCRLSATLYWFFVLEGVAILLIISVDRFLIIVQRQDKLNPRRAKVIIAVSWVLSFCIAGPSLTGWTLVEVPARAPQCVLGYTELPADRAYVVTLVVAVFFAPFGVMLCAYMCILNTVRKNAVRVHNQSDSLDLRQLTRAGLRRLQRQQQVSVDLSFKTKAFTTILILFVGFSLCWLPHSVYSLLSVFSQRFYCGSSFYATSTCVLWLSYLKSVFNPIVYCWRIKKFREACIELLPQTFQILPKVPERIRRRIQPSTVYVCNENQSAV

CCCCC(=O)N1CC2(C1)CN(c1ccccc1-c1nnn[nH]1)C2
EC50 [1]: > 50 µM (not active) | RLU [2]: 2370 | RLU [3]: 464 | RLU [4]: -895 | RLU [5]: -2940 | RLU [6]: -3290 | RLU [7]: -473 | RLU [8]: 761 | RLU [9]: -7340 | RLU [10]: 856 | RLU [11]: -1160 | RLU [12]: 463 | RLU [13]: -2170 | RLU [14]: 1540 | RLU [15]: 598 | RLU [16]: -2080 | RLU [17]: 963 | RLU [18]: 86500 | RLU [19]: 14100 | RLU [20]: -1460 | RLU [21]: 583 | RLU [22]: 13500 | RLU [23]: -1880 | RLU [24]: -668 | RLU [25]: -194 | RLU [26]: -9420 | RLU [27]: 4940 | RLU [28]: -1300 | RLU [29]: 634 | RLU [30]: -1530 | RLU [31]: -900 | RLU [32]: 68.6 | RLU [33]: -71.4 | RLU [34]: 1540 | RLU [35]: -577
